Structures can show the parent of a compound that is named as a salt.

What all share (type): cell-based
Experiment [1] relates to Interferon-α. The experiment in a line: Induction of Interferon-α using fresh human PBMCs. The settings on record: PBMC, 24 hr, relative to 2 μM resiquimod control, read-out: mean pEC50 for induction of IFN-α (converted). Here is the method:
(§1) Assay for the Induction of Interferon-α and TNF-α Using Fresh Human Peripheral Blood Mononuclear Cells (PBMCs)
(§2) Compounds were dissolved and serially diluted in DMSO to give 100× the required concentration range using a Biomek 2000. 1 ul of test compound was transferred into 96-well tissue culture plates using a Biomek FX. Each compound was assayed in duplicate for each donor. Each plate contained a dilution series of the TLR7/8 agonist resiquimod as standard and Column 11 contained 1 μl of 200 μM resiquimod (giving a 2 μM final concentration, used to define the approximate maximal response to resiquimod).
(§3) Blood samples from two human donors were collected into sodium heparin (10 U/ml). 25 ml volumes of whole blood were overlaid onto 15 mls Histopaque in Leucosep tubes which were centrifuged at 800 g for 20 min and the band at the plasma/histopaque interface carefully removed. The collected cells were centrifuged at 2500 rpm for 10 min and the pellet resuspended in 10 ml of media (RPMI 1640 (Low endotoxin) supplemented with 10% v/v foetal calf serum (FCS, low endotoxin) 100 U/ml penicillin G, 100 μg/ml streptomycin, 10 mM L-glutamine and 1× non-essential amino acids). A 1:20 dilution of the cells was prepared using trypan blue & the cells counted using a haemocytometer. The PBMCs were diluted to give a final concentration of 2×10^6/ml and 100 ul of this cells suspension was added to wells containing 1 μl of diluted test compound.
(§4) The cell preparations were incubated for 24 hr (37° C., 95% air, 5% CO2) after which a sample of the supernatant was removed using the Biomek FX and assayed for both IFN-α and TNF-α using the MSD (Mesoscale Discovery) electrochemiluminescence assay platform. The IFN-α assay was carried out similarly to that described above. The TNF-α assay was carried out as per kit instructions (Cat No K111 BHB).
(§5) Cytokine released was expressed as a percentage of the 2 μM resiquimod control (column 11). This percentage was plotted against compound concentration and the pEC50 for the response determined by non-linear least squares curve fitting. For the IFN-α responses generally a 4 parameter logistic model was selected. For the TNF responses where a clear maximum response was obtained (i.e. a well defined plateau in the response was observed) then a 4 parameter model was generally used. If the upper asymptote of the curve wasn't well defined then the curve fitting was generally constrained to a maximal response of 100% (i.e., to the response to 2 μM resiquimod) or to the response of the highest concentration tested if this was greater than the resiquimod response. Some curves were bell shaped for one or both cytokines and the cytokine data on the down slope of the bell shaped response (i.e. concentrations above those giving the maximal response) were generally excluded from the fit, usually with the exception of the concentration immediately above the peak response. Curve fitting thus concentrated on the up slope of the dose response curve.

In another experiment the test system is TNF-α. The experiment in a line: Induction of TNF-α using fresh human PBMCs. Conditions: PBMC, 24 hr, relative to 2 μM resiquimod control, read-out: mean pEC50 for induction of TNF-α (converted). Here is the method: as §1, §2, §3, §4, §5
Experiment [2] deals with Interferon-α. In words: Induction of Interferon-α using cryopreserved human PBMCs. Conditions: PBMC, 24 h, normalised to 1 uM resiquimod, read-out: mean pEC50 for induction of Interferon-α (converted). Here is the method: Assay for the Induction of Interferon-α using Cryopreserved Human Peripheral Blood Mononuclear Cells (PBMCs)
Compounds were dissolved in DMSO. Serial 2-fold dilutions with DMSO were prepared and 0.25 μl dispensed into 384-well clear Greiner polypropylene plates.
Blood samples of up to 200 ml were obtained from healthy human donors. Whole blood in 25 ml volumes was overlaid onto 15 ml Ficoll gradients in Leucosep tubes, and centrifuged at 1000 g for 20 min. Cells in the band at the plasma/histopaque interface were carefully removed and washed twice with PBS (centrifuged at 400 g for 5 min to harvest). The final pellet was resuspended in freezing medium (90% Heat-inactivated serum, 10% DMSO) to a cell concentration of 4×10^7 cells/ml. The resuspended cells were then cryopreserved (frozen) using a rate controlled freezer, and stored at −140° C. for up to 4 months.
Incubation and Assay for Interferon-α
Immediately prior to assay, vials of cryopreserved (frozen) PBMCs were thawed rapidly in a water bath at 37° C. A 1:10 dilution of the cells in trypan blue was prepared and counted. The PBMCs were then diluted in growth media [RPMI 1640 containing 10% fetal calf serum (invitrogen), Penicillin+Streptavidin (Gibco cat. # 25030-024, 1:50), L-Glutamine 2 mM, and 1000 units/ml recombinant human IFN-gamma (Preprotech catalogue #300-02)] to a density of 1×10^6 cells/ml, and 50 ul/well dispensed to 384-well clear Greiner polypropylene plates containing 0.25 μl DMSO or test compound in 0.25 μl DMSO. […] Plates were incubated for 24 h at 37° C. in 5% CO2.
A multi-isoform immunoassay was used to quantify IFN-α in PBMC supernatants. Rabbit polyclonal antibody against human IFN-α (catalogue number 31101, Stratech Scientific) was diluted 1:10000 in assay buffer (RPMI 1640 containing 10% fetal calf serum, Invitrogen) and 20 μl was added to each well of an MSD (Meso-Scale Discovery) single small-spot 384-well GAR (goat anti-rabbit antibody coated) plate. The plate was incubated for 1 h at room temperature with vigorous shaking. Following three washes with PBS, 20 μl of cell supernatant were added to each well of the plate. The plate was then incubated for 1 h at room temperature with vigorous shaking. A pair of monoclonal antibodies to IFN-α (catalogue numbers 21100 and 21112, Stratech Scientific) were labelled with sulfo-TAG (MSD), diluted 1:1000 in assay buffer and 20 μl added to each well of the plate. The plate was further incubated for 1 h at room temperature with vigorous shaking. Following three washes with PBS, 30 μl of ×2 T buffer (MSD) was added to each well and the plate was read on an MSD Sector 6000 plate reader.
Data were normalised to internal plate controls of 1 uM resiquimod (n=16) and DMSO (n=16). pEC50 values were derived by 4-parameter curve fit with IRLS in ActivityBase, from 11-point, two-fold serial dilution of test compounds.

Another experiment deals with IL-13. In words: Allergen-driven cytokine assay using fresh human PBMCs from atopic volunteers (IL-13). The settings on record: at 0.2 μM; atopic donor PBMCs with Timothy grass antigen, up to 6 days. Here is the method:
(§6) Allergen-Driven Cytokine Assay Using Fresh Human Peripheral Blood Mononuclear Cells (PBMCs) from Atopic Volunteers
(§7) An assay based on co-culture of atopic human donor derived peripheral blood mononuclear cells (PBMCs) with allergen and test compounds was developed. After 5-6 days culture, cell supernatants were assayed for a range of cytokines.
(§8) Compounds were dissolved in DMSO, then serially diluted in growth medium (RPMI 1640 medium supplemented with 100 U/ml penicillin G, 100 μg/ml streptomycin, 10 mM L-glutamine) to give 4× the required concentration range in the presence of 0.04% DMSO. Each compound was assayed in triplicate at all concentrations.
(§9) Defibrinated human blood from volunteers known to be allergic to Timothy grass was centrifuged at 2500 rpm for 15 minutes. The upper layer of serum was collected and heat-inactivated at 56° C. for 30 minutes (HI-autologous serum). The lower layer of cells was resuspended in 50 ml PBS (+Ca +Mg), 25 ml diluted blood were overlaid onto 20 ml Lymphoprep in 50 ml tubes then centrifuged at 2500 rpm for 20 minutes at RT. The band at the serum/Lymphoprep interface was carefully removed. […]
(§10) Plates were incubated at 37° C. in 5% CO2 for up to 6 days. […] Cytokines and chemokines in supernatants were detected using Meso Scale Discovery 10 spot plates for Human TH1/Th2 cytokines.

A further experiment has as its system IL-5. The experiment in a line: Allergen-driven cytokine assay using fresh human PBMCs from atopic volunteers (IL-5). The settings on record: at 0.04 μM; atopic donor PBMCs with Timothy grass antigen, up to 6 days. Here is the method: as §6, §7, §8, §9, §10

On to `CCCCOc1nc(N)c2[nH]c(=O)n(CCN3CCNCC3)c2n1` [Example 1, 6-Amino-2-(butyloxy)-9-[2-(1-piperazinyl)ethyl]-7,9-dihydro-8H-purin-8-one dihydrochloride salt], for which the figures for the EC50 in the experiment with Interferon-α [1], in the experiment with TNF-α and in the experiment on Interferon-α [2] were less than 0.1 µM, greater than 3.16 µM and less than 3.16 µM, respectively.

`CCCCOc1nc(N)c2[nH]c(=O)n(CCCN3CCN(C)CC3)c2n1` [Example 6, 6-Amino-2-(butyloxy)-9-[3-(4-methyl-1-piperazinyl)propyl]-7,9-dihydro-8H-purin-8-one]: the EC50 in the experiment on Interferon-α [1] is less than 0.1 µM; with TNF-α, greater than 3.16 µM; with Interferon-α [2], less than 3.16 µM.

In the case of `CCCCOc1nc(N)c2[nH]c(=O)n(CCCCN3CCN(C)CC3)c2n1` [Example 26, 6-Amino-2-(butyloxy)-9-[4-(4-methyl-1-piperazinyl)butyl]-7,9-dihydro-8H-burin-8-one], the EC50 in the experiment on Interferon-α [1] is less than 0.1 µM; with TNF-α it was greater than 3.16 µM; in the experiment on Interferon-α [2], less than 3.16 µM.

For `CCCCOc1nc(N)c2[nH]c(=O)n(CCCCN3CCN(CC)CC3)c2n1` [Example 27, 6-Amino-2-(butyloxy)-9-[4-(4-ethyl-1-piperazinyl)butyl]-7,9-dihydro-8H-burin-8-one], the EC50 in the experiment on Interferon-α [1] was less than 0.01 µM; in the experiment on TNF-α, greater than 1 µM; with Interferon-α [2], less than 3.16 µM.

`CCCCOc1nc(N)c2[nH]c(=O)n(CCCCN3CCN(C(C)C)CC3)c2n1` [Example 29, 6-Amino-2-(butyloxy)-9-{4-[4-(1-methylethyl)-1-piperazinyl]butyl}-7,9-dihydro-8H-purin-8-one]: the EC50 with Interferon-α [1] is less than 0.01 µM; in the experiment with TNF-α, greater than 1 µM; in the experiment on Interferon-α [2] it was less than 3.16 µM.

Take `CCCCOc1nc(N)c2[nH]c(=O)n(CCCCN3CCN(C(C)(C)C)CC3)c2n1` [Example 32, 6-Amino-2-(butyloxy)-9-{4-[4-(1,1-dimethylethyl)-1-piperazinyl]butyl}-7,9-dihydro-8H-purin-8-one]: the EC50 with Interferon-α [1] is less than 0.01 µM; in the experiment on TNF-α, greater than 1 µM; with Interferon-α [2] it was less than 3.16 µM.

For `CCCCNc1nc(N)c2[nH]c(=O)n(CCCCN3CCN(C(C)(C)C)CC3)c2n1` [Example 41, 6-Amino-2-(butylamino)-9-{4-[4-(1,1-dimethylethyl)-1-piperazinyl]butyl}-7,9-dihydro-8H-purin-8-one], the EC50 in the experiment with Interferon-α [1] is less than 0.1 µM; in the experiment on TNF-α it was greater than 3.16 µM; with Interferon-α [2], less than 3.16 µM.

As for `CCCCOc1nc(N)c2[nH]c(=O)n(CCCCCN3CCN(C(C)C)CC3)c2n1` [Example 48, 6-Amino-2-(butyloxy)-9-{5-[4-(1-methylethyl)-1-piperazinyl]pentyl}-7,9-dihydro-8H-purin-8-one], the figures for the EC50 in the experiment on Interferon-α [1], in the experiment with TNF-α and in the experiment on Interferon-α [2] were less than 0.01 µM, greater than 1 µM and less than 3.16 µM, respectively.

`CCC[C@H](C)Oc1nc(N)c2[nH]c(=O)n(CCCCCN3CCN(C(C)C)CC3)c2n1` [Example 52, 6-Amino-2-{[(1S)-1-methylbutyl]oxy}-9-{5-[4-(1-methylethyl)-1-piperazinyl]pentyl}-7,9-dihydro-8H-purin-8-one]: the “reduction of IL-13 production compared to the allergen control” value with IL-13 is greater than 50%. Also, the “reduction of IL-5 production compared to the allergen control” value in the experiment on IL-5 was greater than 50%. Moreover, in the experiment on Interferon-α [2], the EC50 was less than 3.16 µM.

Regarding `CCCCOc1nc(N)c2[nH]c(=O)n(CCCCCCN3CCNCC3)c2n1` [Example 54, 6-Amino-2-(butyloxy)-9-[6-(1-piperazinyl)hexyl]-7,9-dihydro-8H-purin-8-one], the EC50 with Interferon-α [1] is less than 0.01 µM; in the experiment with TNF-α it was greater than 1 µM; with Interferon-α [2], less than 3.16 µM.

As for `CCCCOc1nc(N)c2[nH]c(=O)n(CCCCCCN3CCN(C(C)(C)C)CC3)c2n1` [Example 57, 6-Amino-2-(butyloxy)-9-{6-[4-(1,1-dimethylethyl)-1-piperazinyl]hexyl}-7,9-dihydro-8H-purin-8-one], the figures for the EC50 with Interferon-α [1], in the experiment with TNF-α and in the experiment on Interferon-α [2] were less than 0.001 µM, greater than 1 µM and less than 3.16 µM, respectively.

Take `CCC[C@H](C)Nc1nc(N)c2[nH]c(=O)n(CCCCN3CCN(C(C)C)CC3)c2n1` [Example 75, 6-Amino-2-{[(1S)-1-methylbutyl]amino}-9-{4-[4-(1-methylethyl)-1-piperazinyl]butyl}-7,9-dihydro-8H-purin-8-one]: the EC50 in the experiment on Interferon-α [2] is less than 3.16 µM.

Values taken from patent US20110135671A1, “PURINE DERIVATIVES FOR USE IN THE TREATMENT OF ALLERGIC, INFLAMMATORY AND INFECTIOUS DISEASES” (GLAXOSMITHKLINE LLC, priority 2008, published 2011).
